# Measured values from patent US12325708B2, “Adenosine 2 receptor antagonists” (Nektar Therapeutics, priority 2019, dated 2025).
# Key:
# A1 receptor = molecular target: T1, A1 receptor (Homo sapiens, UniProt P30542); experiment: Radioligand receptor binding assay, A1 receptor; details: cell membranes overexpressing A1 receptor, read-out: Potency Ki A1
# T1 construct: purchased
# T1 sequence (P30542 1-326): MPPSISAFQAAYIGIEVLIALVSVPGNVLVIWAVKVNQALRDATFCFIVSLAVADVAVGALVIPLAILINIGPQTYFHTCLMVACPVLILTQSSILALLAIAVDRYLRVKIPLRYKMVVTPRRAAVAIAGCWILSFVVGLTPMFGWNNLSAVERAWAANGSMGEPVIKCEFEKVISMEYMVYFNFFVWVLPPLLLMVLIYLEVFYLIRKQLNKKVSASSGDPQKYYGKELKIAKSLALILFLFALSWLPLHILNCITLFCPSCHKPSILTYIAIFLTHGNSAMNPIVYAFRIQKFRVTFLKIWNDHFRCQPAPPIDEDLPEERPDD
# Method in brief: (§1)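 Membranes from cell lines overexpressing human A2A, A1 or A3 receptors were incubated 60 min at room temperature with the receptor-appropriate [3H] tracer. After filtration and washing in 50 mM Tris HCl pH 7.5, bound label was counted by scintillation. IC50 came from nonlinear regression and Ki from the Cheng-Prusoff equation.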
# A3 receptor = molecular target: T2, A3 receptor (Homo sapiens, UniProt P0DMS8); experiment: Radioligand receptor binding assay, A3 receptor; details: cell membranes overexpressing A3 receptor, read-out: Potency Ki A3
# T2 construct: purchased
# T2 sequence (P0DMS8 1-318): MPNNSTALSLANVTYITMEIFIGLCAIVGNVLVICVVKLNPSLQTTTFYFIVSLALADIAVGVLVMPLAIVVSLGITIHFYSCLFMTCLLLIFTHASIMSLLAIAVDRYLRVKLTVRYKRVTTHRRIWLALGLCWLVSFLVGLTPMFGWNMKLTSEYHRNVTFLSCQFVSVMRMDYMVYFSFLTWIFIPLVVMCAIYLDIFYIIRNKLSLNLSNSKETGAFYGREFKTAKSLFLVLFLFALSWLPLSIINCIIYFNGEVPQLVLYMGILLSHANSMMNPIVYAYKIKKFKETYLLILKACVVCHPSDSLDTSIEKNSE
# Method: Using conventional receptor binding assay techniques, Compounds 1-24 were assayed to determine binding activity at the A2A, A1, and A3 receptors with the results shown in Table 7.
# Receptor binding affinity of Compounds 1-24 was measured using radioligand binding assays using commercially obtained cell membranes prepared from cell lines overexpressing the A2A, A1, or A3 receptors. Briefly, cell membrane preparations from cells expressing the specific receptor were mixed with the appropriate [^3H]-labeled tracer for the specific receptor and the test compound or a known inhibitor of receptor-ligand binding. Following 60 min incubation at room temperature to allow receptor-ligand complex formation, the complexes were collected by filtration, washed with 50 mM Tris HCl (pH 7.5) to remove radioligand that was not receptor-bound, and the remaining radioactivity determined by liquid scintillation counting. Specific radioligand binding was calculated for each test compound concentration and IC50 values were determined by non-linear, regression analysis. Inhibition constants (Ki) were calculated using the equation of Cheng and Prusoff using the observed IC50 of the tested compound, the concentration of radioligand employed in the assay and the experimentally determined values for the Kd of the ligand.
# [1] = Brain-to-plasma ratio (B/P) after administration; format: in vivo, Sprague-Dawley rats; details: Sprague-Dawley, rat, oral, 2.5 mg/kg; Table 6; brain-to-plasma ratio at 1 h
# Method in brief: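 Plasma pharmacokinetic parameters determined after oral (PO) administration; brain-to-plasma concentration ratio (B/P) used as the brain penetration measure.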
# A2A receptor = molecular target: T3, A2A receptor (Homo sapiens, UniProt P29274); experiment: Radioligand receptor binding assay, A2A receptor; details: cell membranes overexpressing A2A receptor, read-out: Potency Ki A2A
# T3 construct: purchased
# T3 sequence (P29274 whole entry): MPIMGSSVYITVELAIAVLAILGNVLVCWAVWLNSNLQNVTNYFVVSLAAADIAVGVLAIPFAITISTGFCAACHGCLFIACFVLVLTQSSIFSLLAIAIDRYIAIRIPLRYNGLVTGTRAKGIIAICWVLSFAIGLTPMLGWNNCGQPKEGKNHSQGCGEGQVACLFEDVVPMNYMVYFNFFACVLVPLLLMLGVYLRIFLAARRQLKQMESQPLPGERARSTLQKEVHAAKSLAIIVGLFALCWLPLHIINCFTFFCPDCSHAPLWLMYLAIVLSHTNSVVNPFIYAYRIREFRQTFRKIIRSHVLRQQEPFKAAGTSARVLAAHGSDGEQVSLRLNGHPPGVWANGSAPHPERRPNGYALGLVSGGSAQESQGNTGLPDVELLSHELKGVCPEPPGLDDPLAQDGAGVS
# Method in brief: as §1
# [2] = Plasma pharmacokinetic parameters following intravenous (IV) or oral (PO) administration in rats; format: in vivo, Sprague-Dawley rats; details: male, Sprague-Dawley, rat, plasma, Table 6
# Method in brief: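 Fasted male Sprague-Dawley rats (230-250 g, n=2/group), dosed 0.5 mg/kg IV (jugular) or 2.5 mg/kg PO gavage in water. Plasma sampled 2–1440 min, analyzed by LC-MS/MS; non-compartmental analysis with nominal doses/times gave AUC, Cmax, Tmax, CL, Vss, MRTlast, F.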
structure (smiles),measurement,setting,value
"[2H]C([2H])([2H])OC([2H])([2H])C([2H])([2H])Oc1ccc(N2CCN(C([2H])([2H])C([2H])([2H])N(c3cc4nc(-c5ncco5)nn4c(N)n3)C([2H])([2H])[2H])CC2)cc1 [Compound 16, N^7-(^2H3)methyl-N^7-[2-{4-[4-({2-[(^2H3)methyloxy](^2H4)ethyl}oxy)phenyl]piperazin-1-yl}(^2H4)ethyl]-2-(1,3-oxazol-2-yl)[1,2,4]triazolo[1,5-c]pyrimidine-5,7-diamine]",Ki,A1 receptor,> 100 µM
same,Ki,A3 receptor,> 10 µM
same,Kp at 1 h,[1],0.06
same,Ki,A2A receptor,0.004 µM
same,AUC,"[2]; 2.5 mg/kg, oral (PO) administration essentially as described in Example 28",1200 ng·h/mL
same,clearance,"[2]; intravenous, 0.5 mg/kg, essentially as described in Example 28",20 mL/min/kg
same,bioavailability,"[2]; po, 2.5 mg/kg, oral (PO) administration essentially as described in Example 28",58%
